The experiment deals with T1, human Nav1.8 (hNav1.8) ion channel (Homo sapiens, UniProt Q9Y5Y9).
T1 construct: expressed in transfected cells; host or cells: HEK293
As to the kind of experiment: Nav1.8 channel inhibition, estimated IC50 (one or more of: fluorescence inhibition assay, PatchXpress, IonFlux HT automated patch clamp). It counts as cell-based. The note with it: HEK293 cells stably expressing hNav1.8; method used per compound not stated; read-out: Activity range (estimated IC50). The essentials:
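HEK293 cells stably expressing hNav1.8 with β1/β2 subunits; IC50 from the fluorescence assay and/or automated whole-cell patch clamp (PatchXpress, IonFlux HT). Fluorescence: ANG-2 Na dye, 5 min compound preincubation (0.02–5 μM, 1% DMSO) with 30 μM ouabain, stimulation by 10 μM deltamethrin, peak signal fit logistically. PatchXpress: holding potential reset to Vhalf, inhibition normalized to control/washout currents.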

Structures are written as SMILES.

T1 sequence (Q9Y5Y9 whole entry): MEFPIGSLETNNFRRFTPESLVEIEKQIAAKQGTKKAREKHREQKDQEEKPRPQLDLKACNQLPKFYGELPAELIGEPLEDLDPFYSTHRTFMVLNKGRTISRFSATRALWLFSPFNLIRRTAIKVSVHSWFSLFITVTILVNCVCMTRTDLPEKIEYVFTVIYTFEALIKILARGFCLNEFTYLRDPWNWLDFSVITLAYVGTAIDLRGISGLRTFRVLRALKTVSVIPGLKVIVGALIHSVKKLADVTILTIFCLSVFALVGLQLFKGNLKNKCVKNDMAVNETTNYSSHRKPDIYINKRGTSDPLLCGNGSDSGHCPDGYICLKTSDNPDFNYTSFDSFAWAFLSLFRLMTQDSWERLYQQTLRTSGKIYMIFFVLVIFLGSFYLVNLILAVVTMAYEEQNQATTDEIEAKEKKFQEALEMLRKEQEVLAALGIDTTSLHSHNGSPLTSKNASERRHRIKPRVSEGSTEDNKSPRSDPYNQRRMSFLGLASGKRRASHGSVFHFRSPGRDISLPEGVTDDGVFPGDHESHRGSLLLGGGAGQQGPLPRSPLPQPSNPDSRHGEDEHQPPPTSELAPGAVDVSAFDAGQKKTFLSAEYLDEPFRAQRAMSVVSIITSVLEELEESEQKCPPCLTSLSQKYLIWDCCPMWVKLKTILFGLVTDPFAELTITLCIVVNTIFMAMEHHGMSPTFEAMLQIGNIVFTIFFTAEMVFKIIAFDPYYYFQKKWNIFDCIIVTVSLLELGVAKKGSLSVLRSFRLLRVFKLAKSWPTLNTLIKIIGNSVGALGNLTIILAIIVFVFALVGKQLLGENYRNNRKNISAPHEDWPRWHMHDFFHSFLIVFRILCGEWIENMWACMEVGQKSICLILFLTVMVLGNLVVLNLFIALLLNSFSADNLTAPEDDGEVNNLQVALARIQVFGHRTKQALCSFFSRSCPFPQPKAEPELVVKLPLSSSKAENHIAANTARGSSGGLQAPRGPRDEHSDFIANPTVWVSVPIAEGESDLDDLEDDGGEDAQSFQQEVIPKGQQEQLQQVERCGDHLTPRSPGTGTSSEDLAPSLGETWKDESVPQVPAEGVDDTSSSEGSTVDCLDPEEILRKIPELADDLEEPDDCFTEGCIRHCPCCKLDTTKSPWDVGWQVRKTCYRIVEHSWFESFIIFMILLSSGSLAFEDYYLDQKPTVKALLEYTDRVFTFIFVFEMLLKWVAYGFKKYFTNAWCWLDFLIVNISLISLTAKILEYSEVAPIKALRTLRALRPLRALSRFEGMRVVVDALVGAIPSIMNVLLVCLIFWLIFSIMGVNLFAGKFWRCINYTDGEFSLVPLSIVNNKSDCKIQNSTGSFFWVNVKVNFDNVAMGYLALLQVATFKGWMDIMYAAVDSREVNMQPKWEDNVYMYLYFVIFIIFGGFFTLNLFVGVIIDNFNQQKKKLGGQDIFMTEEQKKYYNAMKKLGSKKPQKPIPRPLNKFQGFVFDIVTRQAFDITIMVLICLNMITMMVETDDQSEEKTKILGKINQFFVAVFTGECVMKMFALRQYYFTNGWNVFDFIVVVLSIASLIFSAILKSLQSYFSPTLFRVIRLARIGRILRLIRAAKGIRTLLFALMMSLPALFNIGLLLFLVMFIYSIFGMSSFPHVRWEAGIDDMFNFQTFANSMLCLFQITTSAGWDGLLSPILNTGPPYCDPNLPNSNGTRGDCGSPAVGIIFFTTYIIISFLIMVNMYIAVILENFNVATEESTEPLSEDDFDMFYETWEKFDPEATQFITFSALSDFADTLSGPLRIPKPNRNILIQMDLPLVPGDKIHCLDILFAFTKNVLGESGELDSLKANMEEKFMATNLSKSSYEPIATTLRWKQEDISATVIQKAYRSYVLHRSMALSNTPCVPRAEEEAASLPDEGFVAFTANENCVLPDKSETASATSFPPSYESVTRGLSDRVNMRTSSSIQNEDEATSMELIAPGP

What is called IC50 is the concentration at which inhibition is half-maximal. As to `CN=S(C)(=O)c1cccc(NC(=O)c2cnc(C(F)(F)F)cc2Oc2ccc(F)cc2OC)c1` (stereo not drawn) [Example 70, N-[3-(N,S-dimethylsulfonimidoyl)phenyl]-4-(4-fluoro-2-methoxy-phenoxy)-6-(trifluoromethyl)pyridine-3-carboxamide], the IC50 was < 500 nM.
As for `COc1cc(F)ccc1Oc1cc(C(F)(F)F)ncc1C(=O)Nc1ccnnc1` [Example 71, 4-(4-fluoro-2-methoxy-phenoxy)-N-pyridazin-4-yl-6-(trifluoromethyl)pyridine-3-carboxamide], the IC50 was < 500 nM.
As for `COc1cc(F)ccc1Oc1cc(C(F)(F)F)ncc1C(=O)Nc1ccncc1` [Example 72, 4-(4-fluoro-2-methoxy-phenoxy)-N-(4-pyridyl)-6-(trifluoromethyl)pyridine-3-carboxamide], the figure is < 500 nM.
In the case of `CN(C)c1cc(NC(=O)c2cnc(C(F)(F)F)cc2Oc2ccc(OC(F)(F)F)cc2Cl)ccn1` [Example 73, 4-[2-chloro-4-(trifluoromethoxy)phenoxy]-N-[2-(dimethylamino)-4-pyridyl]-6-(trifluoromethyl)pyridine-3-carboxamide] it was > 1000 nM.
Take `CS(=O)(=O)c1cccc(NC(=O)c2cnc(C(F)(F)F)cc2Oc2ccc(OC(F)(F)F)cc2Cl)c1` [Example 74, 4-[2-chloro-4-(trifluoromethoxy)phenoxy]-N-(3-methylsulfonylphenyl)-6-(trifluoromethyl)pyridine-3-carboxamide]: the IC50 was < 500 nM.
For `C[S+]([O-])c1cccc(NC(=O)c2cnc(C(F)(F)F)cc2Oc2ccc(OC(F)(F)F)cc2Cl)c1` (stereo not drawn) [Example 75, 4-[2-chloro-4-(trifluoromethoxy)phenoxy]-N-(3-methylsulfinylphenyl)-6-(trifluoromethyl)pyridine-3-carboxamide], the IC50 is < 500 nM.
As for `CN(C)S(=O)(=O)c1cccc(NC(=O)c2cnc(C(F)(F)F)cc2Oc2ccc(OC(F)(F)F)cc2Cl)c1` [Example 76, 4-[2-chloro-4-(trifluoromethoxy)phenoxy]-N-[3-(dimethylsulfamoyl)phenyl]-6-(trifluoromethyl)pyridine-3-carboxamide], the IC50 was 500 to 1000 nM.
With `CS(=O)(=O)c1ccc(F)c(NC(=O)c2cnc(C(F)(F)F)cc2Oc2ccc(OC(F)(F)F)cc2Cl)c1` [Example 77, 4-[2-chloro-4-(trifluoromethoxy)phenoxy]-N-(2-fluoro-5-methylsulfonyl-phenyl)-6-(trifluoromethyl)pyridine-3-carboxamide], the half-inhibitory concentration (IC50) is < 500 nM.
In the case of `O=C(Nc1cccnc1)c1cnc(C(F)(F)F)cc1Oc1ccc(OC(F)(F)F)cc1Cl` [Example 78, 4-[2-chloro-4-(trifluoromethoxy)phenoxy]-N-(3-pyridyl)-6-(trifluoromethyl)pyridine-3-carboxamide] it was < 500 nM.
In the case of `O=C(Nc1ccncc1)c1cnc(C(F)(F)F)cc1Oc1ccc(OC(F)(F)F)cc1Cl` [Example 79, 4-[2-chloro-4-(trifluoromethoxy)phenoxy]-N-(4-pyridyl)-6-(trifluoromethyl)pyridine-3-carboxamide] it was < 500 nM; in that of `CS(=N)(=O)c1cccc(NC(=O)c2cnc(C(F)(F)F)cc2Oc2ccc(OC(F)(F)F)cc2Cl)c1` (stereo not drawn) [Example 80, 4-[2-chloro-4-(trifluoromethoxy)phenoxy]-N-[3-(methylsulfonimidoyl)phenyl]-6-(trifluoromethyl)pyridine-3-carboxamide], < 500 nM.
As for `NC(=O)c1cccc(NC(=O)c2cnc(C(F)(F)F)cc2Oc2ccc(OC(F)(F)F)cc2Cl)c1` [Example 81, N-(3-carbamoylphenyl)-4-[2-chloro-4-(trifluoromethoxy)phenoxy]-6-(trifluoromethyl)pyridine-3-carboxamide], the IC50 is < 500 nM.
For the compound `CN=S(C)(=O)c1cccc(NC(=O)c2cnc(C(F)(F)F)cc2Oc2ccc(OC(F)(F)F)cc2Cl)c1` (stereo not drawn) [Example 82, 4-[2-chloro-4-(trifluoromethoxy)phenoxy]-N-[3-(N,S-dimethylsulfonimidoyl)phenyl]-6-(trifluoromethyl)pyridine-3-carboxamide], the IC50 is < 500 nM.
In the case of `O=C(Nc1ccc[n+]([O-])c1)c1cnc(C(F)(F)F)cc1Oc1ccc(OC(F)(F)F)cc1Cl` [Example 83, 4-[2-chloro-4-(trifluoromethoxy)phenoxy]-N-(1-oxidopyridin-1-ium-3-yl)-6-(trifluoromethyl)pyridine-3-carboxamide] it was < 500 nM; in that of `COc1cc(F)ccc1Oc1cc(C(F)(F)F)ncc1C(=O)Nc1ccc[n+]([O-])c1` [Example 84, 4-(4-fluoro-2-methoxy-phenoxy)-N-(1-oxidopyridin-1-ium-3-yl)-6-(trifluoromethyl)pyridine-3-carboxamide], 500 to 1000 nM; in that of `Cc1cc(F)ccc1Oc1cc(C(F)(F)F)ncc1C(=O)Nc1ccc[n+]([O-])c1` [Example 85, 4-(4-fluoro-2-methyl-phenoxy)-N-(1-oxidopyridin-1-ium-3-yl)-6-(trifluoromethyl)pyridine-3-carboxamide], 500 to 1000 nM.
As for `O=C(Nc1ccc[n+]([O-])c1)c1cnc(C(F)(F)F)cc1Oc1ccc(OC(F)F)cc1` [Example 86, 4-[4-(difluoromethoxy)phenoxy]-N-(1-oxidopyridin-1-ium-3-yl)-6-(trifluoromethyl)pyridine-3-carboxamide], the IC50 is 500 to 1000 nM.
With `O=C(Nc1ccc[n+]([O-])c1)c1cnc(C(F)(F)F)cc1Oc1ccc(OC(F)(F)F)cc1` [Example 87, N-(1-oxidopyridin-1-ium-3-yl)-4-[4-(trifluoromethoxy)phenoxy]-6-(trifluoromethyl)pyridine-3-carboxamide], the IC50 was < 500 nM.
Take `COc1ccc(Oc2cc(C(F)(F)F)ncc2C(=O)Nc2ccc[n+]([O-])c2)c(OC)c1` [Example 88, 4-(2,4-dimethoxyphenoxy)-N-(1-oxidopyridin-1-ium-3-yl)-6-(trifluoromethyl)pyridine-3-carboxamide]: the IC50 is < 500 nM.
Consider `O=C(Nc1ccc[n+]([O-])c1)c1cnc(C(F)(F)F)cc1Oc1ccc(F)cc1F` [Example 89, 4-(2,4-difluorophenoxy)-N-(1-oxidopyridin-1-ium-3-yl)-6-(trifluoromethyl)pyridine-3-carboxamide], for which the IC50 was > 1000 nM.
As for `CS(=N)(=O)c1cccc(NC(=O)c2cnc(C(F)(F)F)cc2Oc2ccc(OC(F)(F)F)cc2)c1` (stereo not drawn) [Example 91, N-[3-(methylsulfonimidoyl)phenyl]-4-[4-(trifluoromethoxy)phenoxy]-6-(trifluoromethyl)pyridine-3-carboxamide], the IC50 was < 500 nM.
As for `CN=S(C)(=O)c1cccc(NC(=O)c2cnc(C(F)(F)F)cc2Oc2ccc(OC(F)(F)F)cc2)c1` (stereo not drawn) [Example 92, N-[3-(N,S-dimethylsulfonimidoyl)phenyl]-4-[4-(trifluoromethoxy)phenoxy]-6-(trifluoromethyl)pyridine-3-carboxamide], the figure is < 500 nM.
In the case of `Cc1cc(F)ccc1Oc1cc(C(F)(F)F)ncc1C(=O)Nc1cccc(S(C)(=N)=O)c1` (stereo not drawn) [Example 93, 4-(4-fluoro-2-methyl-phenoxy)-N-[3-(methylsulfonimidoyl)phenyl]-6-(trifluoromethyl)pyridine-3-carboxamide] it was > 1000 nM; in that of `CN=S(C)(=O)c1cccc(NC(=O)c2cnc(C(F)(F)F)cc2Oc2ccc(F)cc2C)c1` (stereo not drawn) [Example 94, N-[3-(N,S-dimethylsulfonimidoyl)phenyl]-4-(4-fluoro-2-methyl-phenoxy)-6-(trifluoromethyl)pyridine-3-carboxamide], < 500 nM.
On to `Cc1cc(F)ccc1Oc1cc(C(F)(F)F)ncc1C(=O)Nc1ccnnc1` [Example 95, 4-(4-fluoro-2-methyl-phenoxy)-N-pyridazin-4-yl-6-(trifluoromethyl)pyridine-3-carboxamide], for which the IC50 is < 500 nM.
Consider `O=C(Nc1ccnnc1)c1cnc(C(F)(F)F)cc1Oc1ccc(OC(F)(F)F)cc1` [Example 96, N-pyridazin-4-yl-4-[4-(trifluoromethoxy)phenoxy]-6-(trifluoromethyl)pyridine-3-carboxamide], for which the IC50 is 500 to 1000 nM.
In the case of `O=C(Nc1ccnnc1)c1cnc(C(F)(F)F)cc1Oc1ccc(OC(F)F)cc1` [Example 97, 4-[4-(difluoromethoxy)phenoxy]-N-pyridazin-4-yl-6-(trifluoromethyl)pyridine-3-carboxamide] it was > 1000 nM.
As for `O=C(Nc1ccnnc1)c1cnc(C(F)(F)F)cc1Oc1ccc(OC(F)(F)F)cc1Cl` [Example 98, 4-[2-chloro-4-(trifluoromethoxy)phenoxy]-N-pyridazin-4-yl-6-(trifluoromethyl)pyridine-3-carboxamide], the figure is < 500 nM; as for `COc1ccc(Oc2cc(C(F)(F)F)ncc2C(=O)Nc2ccnnc2)c(OC)c1` [Example 99, 4-(2,4-dimethoxyphenoxy)-N-pyridazin-4-yl-6-(trifluoromethyl)pyridine-3-carboxamide], < 500 nM.
With `O=C(Nc1ccnnc1)c1cnc(C(F)(F)F)cc1Oc1ccc(F)cc1F` [Example 100, 4-(2,4-difluorophenoxy)-N-pyridazin-4-yl-6-(trifluoromethyl)pyridine-3-carboxamide], the IC50 was > 1000 nM.
In the case of `COc1ccc(Oc2cc(C(F)(F)F)ncc2C(=O)Nc2cccc(S(C)(=N)=O)c2)c(OC)c1` (stereo not drawn) [Example 102, 4-(2,4-dimethoxyphenoxy)-N-[3-(methylsulfonimidoyl)phenyl]-6-(trifluoromethyl)pyridine-3-carboxamide] it was > 1000 nM; in that of `CS(=N)(=O)c1cccc(NC(=O)c2cnc(C(F)(F)F)cc2Oc2ccc(F)cc2F)c1` (stereo not drawn) [Example 103, 4-(2,4-difluorophenoxy)-N-[3-(methylsulfonimidoyl)phenyl]-6-(trifluoromethyl)pyridine-3-carboxamide], > 1000 nM; in that of `COc1cc(NC(=O)c2cc(C(F)(F)F)cnc2Oc2ccc(F)cc2C)ccn1` [Example 109, 2-(4-fluoro-2-methyl-phenoxy)-N-(2-methoxy-4-pyridyl)-5-(trifluoromethyl)pyridine-3-carboxamide], > 1000 nM.

Values taken from patent US12234221B2, “Pyridine carboxamide compounds for inhibiting NAV1.8” (Lieber Institute, Inc., priority 2018, dated 2025).
